Reference: US20110082133A1, “PYRIDONE COMPOUNDS” (priority 2008, published 2011)

What was measured:
rat EP4 receptor [1] = target: T1, rat EP4 receptor (Rattus norvegicus, UniProt P43114); assay: EP4 receptor agonistic action in rat (cAMP increasing action in rat EP4 receptor expression CHO-K1 cells); assay type: cell-based; set-up: expressed in transfected cells; conditions: cAMP increasing action by 1 μM PGE2 taken as 100%
Description: The agonistic activity was evaluated by the cAMP increasing action in the rat EP4 receptor expression cells. The rat EP4 receptor expression vector was introduced into CHO-K1 cells (American Type Culture Collection) to prepare a rat EP4 receptor stable expression cell line. These cells were seeded onto a 96-well microplate at 2×10^4 cell/well, and used for the experiment the next day. The culture medium of each well was removed by suction, 100 μL/well of an assay culture medium (2 μM indomethacin, 0.1% bovine serum albumin-containing α-MEM) was added thereto, and incubated at 37° C. for 1 hour. The culture medium was removed again by suction, and replaced with 100 μL/well of an assay culture medium comprising a test compound and 1 mM IBMX (3-isobutyl-1-methylxanthine). After incubating at 37° C. for 30 minutes, the culture medium was removed by suction, 100 μL/well of a cell lysate (0.2% Triton-X100-containing phosphate buffer physiological saline) was put thereinto, and the plate was shaken for 10 minutes. Using a cAMP femto 2 kit (manufactured by Cis Bio International), the cAMP concentration in the cell lysate was measured. Further, the cAMP increasing action (%) was calculated with the cAMP increasing action by 1 μM PGE2 was taken as 100%.

rat EP4 receptor [2] = target: T1, rat EP4 receptor; assay: Evaluation test on EP4 receptor affinity in rat ([3H]PGE2 receptor binding test, membrane fraction); set-up: expressed in transfected cells; host or cells: HEK293 cells, transient transfection (Lipofectamine 2000); membrane fraction used; conditions: [3H]PGE2 0.3 nM, membrane fraction of rat EP4 expressing HEK293 cells
Description: A rat EP4 receptor cDNA was subcloned into an expression vector (pcDNA3.1-V5-His-topo, manufactured by Invitrogen Corporation) to prepare a rat EP4 expression vector. HEK293 cells were cultured in a collagen type I-treated 15 cm dish (manufactured by Asahi Techno Glass Co. Ltd.) to a confluence of 70%. An Opti-MEM culture medium at 1.2 mL/dish and a transfection reagent (Lipofectamine 2000, manufactured by Invitrogen Corporation) at 60 μL/dish were mixed, followed by being left to stand at room temperature for 5 minutes. Then, the rat EP4 receptor expression vector at 15 μg/dish was added thereto, followed by being left to stand at room temperature for 30 minutes. The liquid mixture of the transfection reagent was added into the dish, followed by culturing for 20 to 24 hours. The cell culture was carried out in a CO2 incubator (37° C., 5% CO2).
The culture medium was removed by suction, 10 mL of cooled PBS was added thereto per 15 cm dish, and the cells were scraped using a cell scraper. After washed with cooled PBS (1,200 rpm, 4° C., 5 minutes), suspended in 6 mL/dish of cooled 20 mM Tris-HCl (pH 7.4; manufactured by Nacalai Tesque Inc., 5 mM EDTA included) and homogenized using a Polytron, the homogenate was centrifuged (26,000 rpm, 20 minutes, 4° C.). The obtained precipitate was resuspended in cooled 20 mM Tris-HCl and homogenized again using a Polytron, and the homogenate was centrifuged (26,000 rpm, 20 minutes, 4° C.). The obtained precipitate was resuspended in 50 mM HEPES (pH 7.5; manufactured by Dojindo Laboratories) at 1 mL per dish, homogenized using a Polytron, and freeze-stored at −80° C. as a membrane fraction. At this time, a part thereof was used for the measurement of the protein concentration. Measurement of the protein concentration was carried out using a Protein assay stain (manufactured by Bio-Rad Laboratories) in accordance with a standard Protocol as appended in duplicate.
[^3H]PGE2 50 μL (final concentration 0.3 nM; manufactured by Perkin Elmer Co., Ltd.), 100 μL (20 μg/well) of the membrane fraction prepared from the rat EP4 expression cell, and 50 μL of a test compound were mixed in a 96-well microplate (manufactured by Sumitomo Bakelite Co., Ltd.), incubated at room temperature for 1 hour, then filtered by suction on a microplate (UniFilter-96 GF/B, manufactured by Perkin Elmer Co., Ltd.) using a cell harvester (FilterMate Harvester, manufactured by Perkin Elmer Co., Ltd.), and washed three times with 300 μL/well of a cooled assay buffer (50 mM HEPES, 10 mM MgCl2). Dilution of [^3H]PGE2 and the membrane fraction was carried out using the assay buffer, and dilution of the test compound and the unlabeled PGE2 was carried out using dimethyl sulfoxide and the assay buffer. The UniFilter-96 GF/B was treated by preliminarily washing twice with 200 μL/well of the cooled assay buffer. The UniFilter-96 GF/B after filtration was dried in a dryer overnight, 50 μL/well of a liquid scintillation cocktail (MicroScint20, manufactured by Perkin Elmer Co., Ltd.) was added thereto, and the radioactivity was then measured using a liquid scintillation counter for a microplate (TopCount, manufactured by Perkin Elmer Co., Ltd.). For measurement of the non-specific binding, an unlabeled PGE2 (final concentration 1 μM; manufactured by Cayman Chemical Company) was added. All of the measurements were carried out in duplicate, and the specific binding amount was determined by subtracting the non-specific binding amount from the total binding amount.
According to the test method as described above, the rat EP4 receptor affinity (Ki) of the compound of the formula (I) was measured. […] In this connection, Ex means Example Compound number.

hindlimb blood flow = assay: Hindlimb blood flow increasing action in anesthetized rat; assay type: in vivo, Wistar male rats; conditions: 2 hours after administration, solvent group set as 100%
Description: Wistar male rats were used. The test compound was orally administered, and after 2 hours, the hindlimb blood was measured using a laser blood flow imaging apparatus (PIM II, manufactured by Integral Corporation). At 20 minutes before the measurement, 60 mg/kg of pentobarbital was intraperitoneally administered to conduct anesthesia.

[3] = system: LPS-induced TNF-α production in THP-1 cells; assay: Inhibitory action on LPS-induced TNF-α production in THP-1 cells; assay type: cell-based; conditions: Homo sapiens, 3 hours after LPS, ELISA
Description: Human monocytic cell line THP-1 cells were suspended in an assay medium (PRMI-1640 containing 10% fetal bovine serum, 100 unit/mL penicillin G sodium, and 100 μg/mL streptomycin sulfate), and seeded onto a 96-well plate at 1×10^5 cells/well. 50 μL/well of an assay medium containing a test compound was added thereto, followed by incubation at 37° C. for 30 minutes. Further, 50 μL/well of an assay medium containing 1 to 5 μg/mL of LPS was added thereto, and the TNF-α concentration in the assay medium of each well after 3 hours was measured. The measurement was carried out by means of a standard ELISA method. A 96-well plate which had been coated overnight with an anti-human TNF monoclonal antibody (clone: MAb1) (manufactured by Becton, Dickinson and Company) as a capture antibody was washed with a wash buffer (PBS containing 0.05% Tween-20), and PBS containing 10% fetal bovine serum was incubated at room temperature for 1 hour to perform blocking. After washing with a wash buffer, 100 μL/well of the assay medium to be measured was incubated at 4° C. overnight. As the standard material to be measured, a recombinant human TNF (manufactured by Becton, Dickinson and Company) was used. After washing with a wash buffer, 100 μL of a biotinylated anti-human TNF monoclonal antibody (clone: MAb11) as a detection antibody was treated at room temperature for 1 hour. After washing with a wash buffer, it was treated with 100 μL/well of an HRP-labeled Streptavidin (manufactured by Zymed Laboratories, Inc.) at room temperature for 30 minutes, and washed again. Treatment was conducted using 100 μL/well of a TMB (3,3′,5,5′-tetramethylbenzidine) substrate liquid at room temperature for 20 minutes in a dark room. A 2 M sulfuric acid was added thereto at 50 μL/well to stop the reaction, and an absorbance at 450 nm/570 nm was measured by means of a plate reader SPECRA max (manufactured by Molecular Devices Inc.).

T1 sequence (P43114 whole entry): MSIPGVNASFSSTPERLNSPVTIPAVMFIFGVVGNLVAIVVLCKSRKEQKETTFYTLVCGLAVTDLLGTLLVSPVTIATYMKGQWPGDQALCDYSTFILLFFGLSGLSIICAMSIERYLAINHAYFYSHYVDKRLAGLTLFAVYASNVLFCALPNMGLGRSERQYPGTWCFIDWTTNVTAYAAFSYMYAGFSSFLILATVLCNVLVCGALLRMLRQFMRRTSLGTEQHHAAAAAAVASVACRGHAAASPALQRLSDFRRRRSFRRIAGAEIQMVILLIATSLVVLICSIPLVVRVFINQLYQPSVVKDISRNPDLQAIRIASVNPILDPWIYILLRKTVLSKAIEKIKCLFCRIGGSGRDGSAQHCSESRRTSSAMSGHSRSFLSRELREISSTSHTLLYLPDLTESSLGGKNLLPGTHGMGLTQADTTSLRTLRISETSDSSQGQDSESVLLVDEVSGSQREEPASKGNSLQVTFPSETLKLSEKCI

Row | Compound | Ki (rat EP4 receptor [2]) [nM] | Blood flow relative to the group administered with the solvent (hindlimb blood flow; dose 0.3 mg/kg oral) [%] | other results
1 | CCOc1ccc2c(c1)N(Cc1c(Cl)cc(Cl)c(=O)n1CCc1ccc(C(=O)O)cc1)CC2 [Example 10, 4-(2-{3,5-dichloro-6-[(6-ethoxy-2,3-dihydro-1H-indol-1-yl)methyl]-2-oxopyridin-1(2H)-yl}ethyl)benzoic acid] | 3.2 | 124 | –
2 | CCC[C@H]1CCCN1Cc1c(Br)ccc(=O)n1CCc1ccc(C(=O)O)cc1 [Example 207] | – | – | Blood flow relative to the group administered with the solvent (hindlimb blood flow; dose 1 mg/kg oral): 140%

Further lines, with some results ahead:

Row | Ki (rat EP4 receptor [2]) [nM] | Compound | Blood flow relative to the group administered with the solvent (hindlimb blood flow; dose 0.3 mg/kg oral) [%] | other results
3 | 2.9 | CCC[C@H]1CCCN1Cc1c(Cl)cc(Cl)c(=O)n1CCc1ccc(-c2n[nH]c(=O)o2)cc1 [Example 208] | – | cAMP increasing action (%) at 10 μM (rat EP4 receptor [1]): 83%
4 | 3.3 | CN(Cc1c(Cl)cc(Cl)c(=O)n1CCc1ccc(C(=O)O)cc1)c1cccc(C(F)(F)F)c1 [Example 159] | – | IC50 [3]: 2.7 nM; Blood flow relative to the group administered with the solvent (hindlimb blood flow; dose 0.1 mg/kg oral): 122%
5 | 28 | CCc1cccc(N(C)Cc2c(Cl)cc(Cl)c(=O)n2CCc2ccc(C(=O)O)cc2)c1 [Example 106] | 126 | –
